In one assay the target is D(2) dopamine receptor (Homo sapiens, UniProt P14416). Kind of assay: Displacement of [3H]-N-methylspiperone from human dopamine D2long receptor expressed in HEK293 cells after 30 mins by scintillation counting.
Assay [1] has as its target T1, D(3) dopamine receptor (Homo sapiens, UniProt P35462). Kind of assay: Displacement of [3H]-N-methylspiperone from human dopamine D3 receptor expressed in HEK293 cells after 30 mins by scintillation counting. For orientation: Loss of bound radioactivity is the signal in a displacement assay; it reports binding, not function.
The target in assay [2] is T1, D(3) dopamine receptor. Kind of assay: Agonist activity at dopamine D3 receptor in human U2OS-D3 cells assessed as EA-tagged beta-arrestin translocation after 1.5 hrs by luminescence based beta-galactosidase assay.

T1 sequence (P35462 as listed by the source): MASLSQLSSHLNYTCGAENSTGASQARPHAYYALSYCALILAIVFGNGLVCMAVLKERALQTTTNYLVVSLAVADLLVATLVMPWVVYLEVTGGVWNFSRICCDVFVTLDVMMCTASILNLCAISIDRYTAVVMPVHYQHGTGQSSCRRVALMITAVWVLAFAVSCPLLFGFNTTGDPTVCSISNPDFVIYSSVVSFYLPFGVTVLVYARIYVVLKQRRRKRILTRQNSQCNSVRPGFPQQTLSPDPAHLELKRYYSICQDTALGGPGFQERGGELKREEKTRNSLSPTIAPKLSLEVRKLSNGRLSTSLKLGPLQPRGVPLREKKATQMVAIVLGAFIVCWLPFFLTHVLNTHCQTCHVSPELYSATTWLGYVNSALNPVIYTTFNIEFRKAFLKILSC
Chain of D(2) dopamine receptor (P14416 whole entry): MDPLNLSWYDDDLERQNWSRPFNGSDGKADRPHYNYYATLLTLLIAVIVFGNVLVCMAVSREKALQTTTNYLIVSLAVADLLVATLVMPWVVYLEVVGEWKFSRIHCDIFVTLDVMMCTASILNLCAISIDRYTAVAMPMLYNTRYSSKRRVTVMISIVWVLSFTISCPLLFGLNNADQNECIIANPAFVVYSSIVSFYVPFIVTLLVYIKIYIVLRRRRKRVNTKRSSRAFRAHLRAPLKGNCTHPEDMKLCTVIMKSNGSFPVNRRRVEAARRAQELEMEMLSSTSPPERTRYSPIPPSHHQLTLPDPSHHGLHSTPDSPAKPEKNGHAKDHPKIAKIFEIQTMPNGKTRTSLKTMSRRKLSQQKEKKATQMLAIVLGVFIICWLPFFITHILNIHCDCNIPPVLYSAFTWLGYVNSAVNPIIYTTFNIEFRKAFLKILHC

What is called Ki is a dissociation constant, usually derived from enzyme kinetics or from competition with a known ligand. The term EC50 denotes the midpoint of the concentration-response curve. Consider `CCCN1C[C@H](c2ccc(O)cc2)C[C@@H]2c3cc(O)c(O)cc3CC[C@H]21`, for which the Ki turned out to be 0.16 µM at D(2) dopamine receptor and 0.0011 µM on D(3) dopamine receptor [1]. For the same compound, the EC50 on D(3) dopamine receptor [2] came to 0.046 µM.

The values above are taken from BindingDB's records for doi:10.1016/j.bmc.2012.08.058 (Purdue University, 2012).
